According to US10718006B2, “Methods for detecting beta-lactamase-producing bacteria” (priority 2015, dated 2020):

What was measured:
Assay in all cases: Electrochemical assay with substrate HMRZ-86, liquid cultures
Format in all cases: cell-based
E. cloacae strains = conditions: liquid culture, 30 min with HMRZ-86
Protocol: (§1) Each cryopreserved strain is cultured in 10 mL of LB medium at 37° C. until the stationary phase is obtained.
(§2) A volume of 50 μL of culture liquid is incubated in the presence of 50 μL of a solution of HMRZ-86 at 0.5 mM in PBS at 37° C. with stirring for 30 min. 40 μL of the reaction mixture is taken and transferred onto the surface of a screen-printed carbon sensor (Dropsens, DRP-110) connected beforehand to a STAT 8000P portable potentiostat (Dropsens) with power supply from the computer's USB port and controlled by the DropView 8400 software. Linear voltammetry measurements are carried out by linear potential scanning from −0.1 V to 1.2 V at a rate of 50 mV·s^−1. The peak current appearing in the potential range +0.2 to +0.55 V vs. Ag/AgCl, associated with hydrolysis of the beta-lactam ring of HMRZ-86, is selected as the analytical response. If the intensity of the peak (i) has a value above 500 nA, the sample contains a strain capable of degrading the C3Gs.
(§3) The electrochemical method of the invention was applied to analysis of a panel of 40 strains producing various β-lactamases and was compared with the R-Lacta™ Test (Biorad), the principle of which is based on qualitative colorimetric detection of the C3G-resistant strains. The results presented in Table 7 were obtained after 30 min of incubation of the bacteria with the substrate HMRZ-86 for both methods. Based on the interpretation of the results proposed by the supplier, the R-Lacta™ Test allows identification of the C3G-resistant strains with a level of agreement of 68%, whereas a level of agreement of 95% was obtained with the electrochemical method of the invention. In contrast to colorimetry, amperometry offers the advantage of measuring a numerical value of current which, on the one hand, avoids any subjective interpretation of the result (intermediate colour), and on the other hand allows traceability of the result.
(§4) Table 7: Comparison of the results obtained with the electrochemical method of the invention for liquid cultures with those obtained with the R-Lacta™ Test implemented according to the supplier's recommendations with isolated colonies. In both cases, the readings were taken after incubation with the substrate HMRZ-86 for 30 min.

C. freundii strain = conditions: C. freundii 11745, Inducible cephalosporinase; liquid culture, 30 min with HMRZ-86
Protocol: as §1, §2, §3, §4

E. aerogenes strains = conditions: liquid culture, 30 min with HMRZ-86
Protocol: as §1, §2, §3, §4

S. marcescens strain = conditions: S. marcescens 11787, Hyperproduced cephalosporinase; liquid culture, 30 min with HMRZ-86
Protocol: as §1, §2, §3, §4

K. pneumoniae strains = conditions: liquid culture, 30 min with HMRZ-86
Protocol: as §1, §2, §3, §4

P. mirabilis strains = conditions: liquid culture, 30 min with HMRZ-86
Protocol: as §1, §2, §3, §4

P. aeruginosa strains = conditions: liquid culture, 30 min with HMRZ-86
Protocol: as §1, §2, §3, §4

[1] = system: E. coli strains producing various β-lactamases; conditions: liquid culture, 30 min with HMRZ-86
Protocol: as §1, §2, §3, §4

SMILES: CC(C)(ON=C(C(=O)N[C@@H]1C(=O)N2C(C(=O)O)=C(C=Cc3ccc([N+](=O)[O-])cc3[N+](=O)[O-])CS[C@H]12)c1csc(N)n1)C(=O)O.O=C(O)C(F)(F)F [HMRZ-86, (6R,7R)-trifluoroacetate 7-[[2-(2-amino-4-thiazolyl)-2-[(1-carboxy-1-methylethoxy)imino]acetyl]amino]-1-aza-3-[2-(2,4-dinitrophenyl)ethenyl]-8-oxo-5-thiabicyclo[4.2.0]oct-2-ene-2-carboxylic acid]
- Electrochemical assay Intensity (E. cloacae strains; E. cloacae 11784, Hyperproduced cephalosporinase): 569 nA
- Electrochemical assay Intensity (E. cloacae strains; E. cloacae 11790, Hyperproduced cephalosporinase): 686 nA
- Electrochemical assay Intensity (E. cloacae strains; E. cloacae 11794, Hyperproduced cephalosporinase): 842 nA
- Electrochemical assay Intensity (C. freundii strain): 369 nA
- Electrochemical assay Intensity (E. aerogenes strains; E. aerogenes 11772, Inducible cephalosporinase): 362 nA
- Electrochemical assay Intensity (E. aerogenes strains; E. aerogenes 11775, Hyperproduced cephalosporinase): 501 nA
- Electrochemical assay Intensity (E. aerogenes strains; E. aerogenes 11796, ESBL TEM 24): 1249 nA
- Electrochemical assay Intensity (S. marcescens strain): 3922 nA
- Electrochemical assay Intensity (K. pneumoniae strains; K. pneumoniae 11754, Carbapenemase OXA-48 - CTX-M): 3520 nA
- Electrochemical assay Intensity (K. pneumoniae strains; K. pneumoniae 11762, Carbapenemase OXA-48): 476 nA
- Electrochemical assay Intensity (K. pneumoniae strains; K. pneumoniae 11770, Low-level penicillinase): 365 nA
- Electrochemical assay Intensity (K. pneumoniae strains; K. pneumoniae 11812, ESBL CTX-M-15): 3494 nA
- Electrochemical assay Intensity (K. pneumoniae strains; K. pneumoniae 11839, Carbapenemase KPC-2): 1567 nA
- Electrochemical assay Intensity (K. pneumoniae strains; K. pneumoniae 11842, Carbapenemase NDM-1): 1257 nA
- Electrochemical assay Intensity (P. mirabilis strains; P. mirabilis 11747, Beta-lactamase negative): 322 nA
- Electrochemical assay Intensity (P. mirabilis strains; P. mirabilis 11768, Low-level penicillinase): 233 nA
- Electrochemical assay Intensity (P. aeruginosa strains; P. aeruginosa 11774, Hyperproduced cephalosporinase): 2160 nA
- Electrochemical assay Intensity (P. aeruginosa strains; P. aeruginosa 11778, Hyperproduced cephalosporinase): 2278 nA
- Electrochemical assay Intensity (P. aeruginosa strains; P. aeruginosa 11782, Hyperproduced cephalosporinase): 1778 nA
- Electrochemical assay Intensity ([1]; E. coli 11746, Hyperproduced penicillinase): 380 nA
- Electrochemical assay Intensity ([1]; E. coli 11748, Inducible cephalosporinase): 424 nA
- Electrochemical assay Intensity ([1]; E. coli 11755, Carbapenemase OXA-48 - CTX-M): 3509 nA
- Electrochemical assay Intensity ([1]; E. coli 11757, Carbapenemase OXA-48): 625 nA
- Electrochemical assay Intensity ([1]; E. coli 11765, Hyperproduced penicillinase): 323 nA
- Electrochemical assay Intensity ([1]; E. coli 11766, Inducible cephalosporinase): 408 nA
- Electrochemical assay Intensity ([1]; E. coli 11776, Inducible cephalosporinase): 446 nA
- Electrochemical assay Intensity ([1]; E. coli 11780, Hyperproduced penicillinase): 425 nA
- Electrochemical assay Intensity ([1]; E. coli 11781, Low-level penicillinase): 377 nA
- Electrochemical assay Intensity ([1]; E. coli 11791, Hyperproduced cephalosporinase): 816 nA
- Electrochemical assay Intensity ([1]; E. coli 11810, ESBL CTX-M-1): 2544 nA
- Electrochemical assay Intensity ([1]; E. coli 11817, ESBL CTX-M-2): 1472 nA
- Electrochemical assay Intensity ([1]; E. coli 11818, ESBL CTX-M-1): 3583 nA
- Electrochemical assay Intensity ([1]; E. coli 11820, ESBL SHV-12): 1249 nA
- Electrochemical assay Intensity ([1]; E. coli 11828, ESBL CTX-M-27): 2640 nA
- Electrochemical assay Intensity ([1]; E. coli 11833, ESBL CTX-M-9): 2455 nA
- Electrochemical assay Intensity ([1]; E. coli 11834, ESBL TEM-12): 418 nA
- Electrochemical assay Intensity ([1]; E. coli 11863, ESBL CTX-M-14): 2544 nA
- Electrochemical assay Intensity ([1]; E. coli K12, Beta-lactamase negative): 302 nA
